# Test results as given in US12312347B2, “Azaindole derivative and use thereof as FGFR and C-Met inhibitor” (Wuxi Life Fountain Biotech Co., Ltd, priority 2018, dated 2025).
# Structures can show the parent of a compound that is named as a salt.
# Molecular target: T1, human FGFR1 (Homo sapiens, UniProt P11362)
# T1 construct: purchased Invitrogen PV3146
# Experiment: 33P isotope-labeled kinase activity test, FGFR1
# Assay type: biochemical
# Settings: ATP 5 μM
# Description: (§1) The inhibitory activities of the tested compounds on human FGFR1, FGFR4, and c-Met were evaluated by the IC50 values measured using ^33P isotope-labeled kinase activity test (Reaction Biology Corp).
# (§2) Buffer condition: 20 mM Hepes (pH 7.5), 10 mM MgCl2, 1 mM EGTA, 0.02% Brij35, 0.02 mg/mL BSA, 0.1 mM Na3VO4, 2 mM DTT, 1% DMSO.
# Test procedure: The test compounds were dissolved in DMSO at room temperature and formulated to be 10 mM solutions for later use. The substrates were dissolved in freshly prepared buffer, and kinases to be tested were added and mixed well. The test compounds dissolved in DMSO were added to the above mixed reaction solutions by acoustic technique (Echo 550). […] After incubation for 15 min, ^33P-ATP (activity 0.01 μCi/μL, corresponding concentrations are listed in Table 1) was added to start the reaction. Supplier item number, batch number, as well as the concentration information in the reaction solution of FGFR1, FGFR4, c-Met and substrates thereof are listed in Table 1. […] The kinase activity data are expressed by comparison between the kinase activity in the test compound group and the kinase activity in the blank group (containing DMSO only). IC50 values were obtained by curve fitting with Prism4 software (GraphPad).
# T1 sequence (P11362 22-822): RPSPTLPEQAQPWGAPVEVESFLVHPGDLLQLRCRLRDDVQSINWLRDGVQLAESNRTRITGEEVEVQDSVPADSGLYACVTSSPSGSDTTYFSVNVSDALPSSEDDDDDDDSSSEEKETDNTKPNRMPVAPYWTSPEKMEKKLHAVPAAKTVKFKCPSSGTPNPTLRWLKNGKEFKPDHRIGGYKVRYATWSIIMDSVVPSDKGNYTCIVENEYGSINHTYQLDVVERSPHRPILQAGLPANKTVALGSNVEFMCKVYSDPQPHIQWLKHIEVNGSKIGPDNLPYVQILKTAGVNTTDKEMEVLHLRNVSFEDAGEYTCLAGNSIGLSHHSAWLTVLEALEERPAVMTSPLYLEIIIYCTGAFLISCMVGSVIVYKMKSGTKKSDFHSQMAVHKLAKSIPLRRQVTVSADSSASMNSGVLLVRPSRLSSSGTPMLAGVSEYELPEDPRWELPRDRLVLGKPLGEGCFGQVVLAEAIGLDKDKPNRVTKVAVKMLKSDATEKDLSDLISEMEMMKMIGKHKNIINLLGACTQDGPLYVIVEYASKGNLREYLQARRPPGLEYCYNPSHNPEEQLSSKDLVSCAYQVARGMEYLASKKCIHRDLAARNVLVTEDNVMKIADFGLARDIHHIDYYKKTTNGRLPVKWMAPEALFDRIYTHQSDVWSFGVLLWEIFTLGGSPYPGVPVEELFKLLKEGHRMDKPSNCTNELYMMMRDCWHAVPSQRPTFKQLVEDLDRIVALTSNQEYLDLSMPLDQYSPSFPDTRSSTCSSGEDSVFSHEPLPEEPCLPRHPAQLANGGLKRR
row,SMILES,IC50
1,COc1cc(OC)c(F)c(CC2=CN=C3N=CC(c4cnn(CCN5CCOCC5)c4)=CC23)c1F (stereo not drawn) [Trifluoroacetate salt of embodiment 21],2 nM
2,COc1cc(OC)c(F)c(Cc2c[nH]c3ncc(-c4cnn(C5CCC(O)CC5)c4)cc23)c1F (stereo not drawn) [Trifluoroacetate salt of embodiment 31],0.9 nM
3,COc1cc(OC)c(F)c(Cc2c[nH]c3ncc(-c4cnn(C5CCN(C6COC6)CC5)c4)cc23)c1F [Trifluoroacetate salt of embodiment 15],1.94 nM
4,CCN1CCC(C#N)(c2cccc(-c3cnc4[nH]cc(Cc5c(F)c(OC)cc(OC)c5F)c4c3)c2)CC1 [Trifluoroacetate salt of embodiment 60],2.2 nM
5,CCN1CCc2ncc(-c3cnc4[nH]cc(Cc5c(F)c(OC)cc(OC)c5F)c4c3)cc2C1 [Trifluoroacetate salt of embodiment 53],0.32 nM
6,COc1cc(OC)c(F)c(Cc2c[nH]c3ncc(-c4cnn(C5CCN(C(C)C)CC5)c4)cc23)c1F [Trifluoroacetate salt of embodiment 14],1.34 nM
7,COc1cc(OC)c(F)c(Cc2c[nH]c3ncc(-c4cnn(CC(O)CO)c4)cc23)c1F (stereo not drawn) [Hydrochloride of embodiment 73],0.6 nM
8,COc1ccc(Cl)c(Cc2c[nH]c3ncc(-c4cnn(C5CCNCC5)c4)nc23)c1Cl [Embodiment 7],85.9 nM
9,COc1cc(OC)c(F)c(Cc2c[nH]c3ncc(-c4cnn(CCN(C)C)c4)cc23)c1F [Hydrochloride of embodiment 28],0.55 nM
10,COc1cc(OC)c(F)c(Cc2c[nH]c3ncc(-c4cnc5c(c4)CNC5)cc23)c1F [Trifluoroacetate salt of embodiment 50],0.12 nM
11,COc1cc(OC)c(F)c(Cc2c[nH]c3ncc(-c4cnn(C5CCNCC5)c4)cc23)c1F [Embodiment 9],0.8 nM
12,COc1cc(OC)c(F)c(Cc2c[nH]c3ncc(-c4cccc(C5(C#N)CCNCC5)c4)cc23)c1F [Trifluoroacetate salt of embodiment 59],0.8 nM
13,COc1ccc(F)c(Cc2c[nH]c3ncc(-c4cnn(C5CCNCC5)c4)cc23)c1F [Trifluoroacetate salt of embodiment 19],13.7 nM
14,CCN1CCC(C#N)(c2ccc(-c3cnc4[nH]cc(Cc5c(F)c(OC)cc(OC)c5F)c4c3)cc2)CC1 [Trifluoroacetate salt of embodiment 58],1.2 nM
15,COc1cc(OC)c(F)c(Cc2c[nH]c3ncc(-c4cnn(C5CCN(C)CC5)c4)cc23)c1F [Trifluoroacetate salt of embodiment 13],0.04 nM
16,COc1cc(OC)c(F)c(Cc2c[nH]c3ncc(-c4cnn(CC(O)CNC(C)C)c4)cc23)c1F (stereo not drawn) [Hydrochloride of embodiment 71],0.4 nM

# Molecular target: T2, human FGFR4 (Homo sapiens, UniProt P22455)
# T2 construct: purchased Invitrogen P3054
# T2 sequence (P22455 22-802): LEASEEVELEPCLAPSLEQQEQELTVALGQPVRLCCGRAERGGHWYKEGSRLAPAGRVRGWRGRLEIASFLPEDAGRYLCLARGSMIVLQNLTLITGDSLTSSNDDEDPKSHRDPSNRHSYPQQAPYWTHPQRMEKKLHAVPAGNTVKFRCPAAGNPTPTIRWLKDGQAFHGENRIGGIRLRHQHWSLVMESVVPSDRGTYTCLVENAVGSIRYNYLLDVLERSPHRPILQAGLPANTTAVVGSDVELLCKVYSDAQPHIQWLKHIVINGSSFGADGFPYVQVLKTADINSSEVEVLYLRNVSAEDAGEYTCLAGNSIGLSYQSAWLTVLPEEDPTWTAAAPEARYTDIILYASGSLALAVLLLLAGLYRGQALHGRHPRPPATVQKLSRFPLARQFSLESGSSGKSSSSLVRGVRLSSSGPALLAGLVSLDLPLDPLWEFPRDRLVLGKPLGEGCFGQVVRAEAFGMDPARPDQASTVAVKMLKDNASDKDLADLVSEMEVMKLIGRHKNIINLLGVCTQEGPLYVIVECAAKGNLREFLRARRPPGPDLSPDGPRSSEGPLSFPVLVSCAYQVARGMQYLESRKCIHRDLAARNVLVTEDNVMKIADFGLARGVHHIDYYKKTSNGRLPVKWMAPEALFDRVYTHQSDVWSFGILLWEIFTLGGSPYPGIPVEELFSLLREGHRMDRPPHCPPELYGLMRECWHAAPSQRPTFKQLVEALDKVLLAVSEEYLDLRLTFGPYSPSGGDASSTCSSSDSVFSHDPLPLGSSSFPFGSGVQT
# Experiment: 33P isotope-labeled kinase activity test, FGFR4
# Assay type: biochemical
# Settings: ATP 100 μM
# Description: as §1, §2
# (§3) Test procedure: The test compounds were dissolved in DMSO at room temperature and formulated to be 10 mM solutions for later use. The substrates were dissolved in freshly prepared buffer, and kinases to be tested were added and mixed well. The test compounds dissolved in DMSO were added to the above mixed reaction solutions by acoustic technique (Echo 550). The concentration of the compound in reaction solution was 1 μM, […], 3.91 nM, 0.977 nM, 0.244 nM, 0.061 nM, 0.0153 nM, 0.00381 nM or 10 μM, 2.50 μM, 0.62 μM, 0.156 μM, 39.1 nM, 9.8 nM, 2.4 nM, 0.61 nM, 0.15 nM, 0.038 nM. After incubation for 15 min, ^33P-ATP (activity 0.01 μCi/μL, corresponding concentrations are listed in Table 1) was added to start the reaction. Supplier item number, batch number, as well as the concentration information in the reaction solution of FGFR1, FGFR4, c-Met and substrates thereof are listed in Table 1. […] The kinase activity data are expressed by comparison between the kinase activity in the test compound group and the kinase activity in the blank group (containing DMSO only). IC50 values were obtained by curve fitting with Prism4 software (GraphPad).
row,SMILES,IC50
1,COc1cc(OC)c(F)c(CC2=CN=C3N=CC(c4cnn(CCN5CCOCC5)c4)=CC23)c1F (stereo not drawn) [Trifluoroacetate salt of embodiment 21],25.2 nM
2,COc1cc(OC)c(F)c(Cc2c[nH]c3ncc(-c4cnn(C5CCC(O)CC5)c4)cc23)c1F (stereo not drawn) [Trifluoroacetate salt of embodiment 31],9.9 nM
3,COc1cc(OC)c(F)c(Cc2c[nH]c3ncc(-c4cnn(C5CCN(C6COC6)CC5)c4)cc23)c1F [Trifluoroacetate salt of embodiment 15],25.9 nM
4,CCN1CCC(C#N)(c2cccc(-c3cnc4[nH]cc(Cc5c(F)c(OC)cc(OC)c5F)c4c3)c2)CC1 [Trifluoroacetate salt of embodiment 60],33.4 nM
5,CCN1CCc2ncc(-c3cnc4[nH]cc(Cc5c(F)c(OC)cc(OC)c5F)c4c3)cc2C1 [Trifluoroacetate salt of embodiment 53],2.9 nM
6,COc1cc(OC)c(F)c(Cc2c[nH]c3ncc(-c4cnn(C5CCN(C(C)C)CC5)c4)cc23)c1F [Trifluoroacetate salt of embodiment 14],27.5 nM
7,COc1cc(OC)c(F)c(Cc2c[nH]c3ncc(-c4cnn(CC(O)CO)c4)cc23)c1F (stereo not drawn) [Hydrochloride of embodiment 73],2.5 nM
8,COc1ccc(Cl)c(Cc2c[nH]c3ncc(-c4cnn(C5CCNCC5)c4)nc23)c1Cl [Embodiment 7],> 10000 nM
9,COc1cc(OC)c(F)c(Cc2c[nH]c3ncc(-c4cnn(CCN(C)C)c4)cc23)c1F [Hydrochloride of embodiment 28],20.2 nM
10,COc1cc(OC)c(F)c(Cc2c[nH]c3ncc(-c4cnc5c(c4)CNC5)cc23)c1F [Trifluoroacetate salt of embodiment 50],4.4 nM
11,COc1cc(OC)c(F)c(Cc2c[nH]c3ncc(-c4cnn(C5CCNCC5)c4)cc23)c1F [Embodiment 9],18.3 nM
12,COc1cc(OC)c(F)c(Cc2c[nH]c3ncc(-c4cccc(C5(C#N)CCNCC5)c4)cc23)c1F [Trifluoroacetate salt of embodiment 59],14.7 nM
13,COc1ccc(F)c(Cc2c[nH]c3ncc(-c4cnn(C5CCNCC5)c4)cc23)c1F [Trifluoroacetate salt of embodiment 19],262 nM
14,CCN1CCC(C#N)(c2ccc(-c3cnc4[nH]cc(Cc5c(F)c(OC)cc(OC)c5F)c4c3)cc2)CC1 [Trifluoroacetate salt of embodiment 58],23.5 nM
15,COc1cc(OC)c(F)c(Cc2c[nH]c3ncc(-c4cnn(C5CCN(C)CC5)c4)cc23)c1F [Trifluoroacetate salt of embodiment 13],9 nM
16,COc1cc(OC)c(F)c(Cc2c[nH]c3ncc(-c4cnn(CC(O)CNC(C)C)c4)cc23)c1F (stereo not drawn) [Hydrochloride of embodiment 71],4.9 nM

# Molecular target: T3, human c-Met (Homo sapiens, UniProt P08581)
# T3 construct: purchased Invitrogen PV3143
# T3 sequence (P08581 25-1390): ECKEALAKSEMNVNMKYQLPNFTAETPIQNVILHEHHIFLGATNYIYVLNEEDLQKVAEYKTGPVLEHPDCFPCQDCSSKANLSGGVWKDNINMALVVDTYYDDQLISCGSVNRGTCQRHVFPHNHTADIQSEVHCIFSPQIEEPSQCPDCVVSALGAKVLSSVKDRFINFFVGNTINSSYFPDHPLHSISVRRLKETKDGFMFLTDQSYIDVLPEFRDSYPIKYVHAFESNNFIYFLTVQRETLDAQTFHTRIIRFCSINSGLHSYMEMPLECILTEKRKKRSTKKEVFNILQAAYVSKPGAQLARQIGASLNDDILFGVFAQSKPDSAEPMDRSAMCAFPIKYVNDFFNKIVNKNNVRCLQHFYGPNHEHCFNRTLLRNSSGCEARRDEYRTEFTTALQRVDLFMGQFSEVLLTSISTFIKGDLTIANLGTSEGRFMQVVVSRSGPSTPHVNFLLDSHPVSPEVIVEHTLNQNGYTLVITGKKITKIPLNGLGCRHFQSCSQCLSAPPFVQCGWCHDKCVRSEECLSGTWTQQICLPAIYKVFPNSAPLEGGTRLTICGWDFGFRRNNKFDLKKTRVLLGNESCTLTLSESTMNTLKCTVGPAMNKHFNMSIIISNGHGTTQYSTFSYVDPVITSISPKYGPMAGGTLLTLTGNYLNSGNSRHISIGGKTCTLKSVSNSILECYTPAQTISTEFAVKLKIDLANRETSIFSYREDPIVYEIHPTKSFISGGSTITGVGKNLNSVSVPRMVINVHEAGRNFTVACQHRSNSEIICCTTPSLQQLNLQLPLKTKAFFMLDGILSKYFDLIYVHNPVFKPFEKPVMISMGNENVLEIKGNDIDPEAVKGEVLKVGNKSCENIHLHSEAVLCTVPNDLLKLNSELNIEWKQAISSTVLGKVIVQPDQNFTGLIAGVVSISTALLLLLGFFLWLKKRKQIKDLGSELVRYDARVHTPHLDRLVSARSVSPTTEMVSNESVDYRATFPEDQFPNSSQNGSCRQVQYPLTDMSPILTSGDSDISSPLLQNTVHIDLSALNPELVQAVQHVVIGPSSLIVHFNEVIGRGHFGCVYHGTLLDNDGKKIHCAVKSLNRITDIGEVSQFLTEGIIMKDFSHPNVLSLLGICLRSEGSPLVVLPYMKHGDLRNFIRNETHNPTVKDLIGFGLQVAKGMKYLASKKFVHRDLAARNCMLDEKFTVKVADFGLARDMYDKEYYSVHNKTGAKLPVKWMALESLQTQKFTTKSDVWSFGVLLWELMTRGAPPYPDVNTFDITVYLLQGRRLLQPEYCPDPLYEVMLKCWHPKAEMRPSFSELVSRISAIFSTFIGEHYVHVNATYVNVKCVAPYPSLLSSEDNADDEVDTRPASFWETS
# Experiment: 33P isotope-labeled kinase activity test, c-Met
# Assay type: biochemical
# Settings: ATP 10 μM
# Description: as §1, §2, §3
row,SMILES,IC50
1,COc1cc(OC)c(F)c(CC2=CN=C3N=CC(c4cnn(CCN5CCOCC5)c4)=CC23)c1F (stereo not drawn) [Trifluoroacetate salt of embodiment 21],55.9 nM
2,COc1cc(OC)c(F)c(Cc2c[nH]c3ncc(-c4cnn(C5CCC(O)CC5)c4)cc23)c1F (stereo not drawn) [Trifluoroacetate salt of embodiment 31],6.9 nM
3,COc1cc(OC)c(F)c(Cc2c[nH]c3ncc(-c4cnn(C5CCN(C6COC6)CC5)c4)cc23)c1F [Trifluoroacetate salt of embodiment 15],16 nM
4,CCN1CCC(C#N)(c2cccc(-c3cnc4[nH]cc(Cc5c(F)c(OC)cc(OC)c5F)c4c3)c2)CC1 [Trifluoroacetate salt of embodiment 60],320 nM
5,CCN1CCc2ncc(-c3cnc4[nH]cc(Cc5c(F)c(OC)cc(OC)c5F)c4c3)cc2C1 [Trifluoroacetate salt of embodiment 53],107 nM
6,COc1cc(OC)c(F)c(Cc2c[nH]c3ncc(-c4cnn(C5CCN(C(C)C)CC5)c4)cc23)c1F [Trifluoroacetate salt of embodiment 14],14 nM
7,COc1cc(OC)c(F)c(Cc2c[nH]c3ncc(-c4cnn(CC(O)CO)c4)cc23)c1F (stereo not drawn) [Hydrochloride of embodiment 73],32.4 nM
8,COc1ccc(Cl)c(Cc2c[nH]c3ncc(-c4cnn(C5CCNCC5)c4)nc23)c1Cl [Embodiment 7],41.5 nM
9,COc1cc(OC)c(F)c(Cc2c[nH]c3ncc(-c4cnn(CCN(C)C)c4)cc23)c1F [Hydrochloride of embodiment 28],25.9 nM
10,COc1cc(OC)c(F)c(Cc2c[nH]c3ncc(-c4cnc5c(c4)CNC5)cc23)c1F [Trifluoroacetate salt of embodiment 50],136 nM
11,COc1cc(OC)c(F)c(Cc2c[nH]c3ncc(-c4cnn(C5CCNCC5)c4)cc23)c1F [Embodiment 9],11.3 nM
12,COc1cc(OC)c(F)c(Cc2c[nH]c3ncc(-c4cccc(C5(C#N)CCNCC5)c4)cc23)c1F [Trifluoroacetate salt of embodiment 59],127 nM
13,COc1ccc(F)c(Cc2c[nH]c3ncc(-c4cnn(C5CCNCC5)c4)cc23)c1F [Trifluoroacetate salt of embodiment 19],5.7 nM
14,CCN1CCC(C#N)(c2ccc(-c3cnc4[nH]cc(Cc5c(F)c(OC)cc(OC)c5F)c4c3)cc2)CC1 [Trifluoroacetate salt of embodiment 58],162 nM
15,COc1cc(OC)c(F)c(Cc2c[nH]c3ncc(-c4cnn(C5CCN(C)CC5)c4)cc23)c1F [Trifluoroacetate salt of embodiment 13],7.62 nM
16,COc1cc(OC)c(F)c(Cc2c[nH]c3ncc(-c4cnn(CC(O)CNC(C)C)c4)cc23)c1F (stereo not drawn) [Hydrochloride of embodiment 71],32.8 nM
